Assay results published in US20230140216A1, “COMBINATION THERAPY FOR TREATING MPS1” (GAIN THERAPEUTICS SA, priority 2020, published 2023).

What follows are compounds tested against T1, Recombinant human α-L-iduronidase protein (Homo sapiens, UniProt P35475) (assay: Differential scanning fluorimetry (DSF) thermal stabilization). Details: commercially available Examples 8-37; ΔTm class.
T1 construct: purchased R&D
T1 sequence (P35475 28-653): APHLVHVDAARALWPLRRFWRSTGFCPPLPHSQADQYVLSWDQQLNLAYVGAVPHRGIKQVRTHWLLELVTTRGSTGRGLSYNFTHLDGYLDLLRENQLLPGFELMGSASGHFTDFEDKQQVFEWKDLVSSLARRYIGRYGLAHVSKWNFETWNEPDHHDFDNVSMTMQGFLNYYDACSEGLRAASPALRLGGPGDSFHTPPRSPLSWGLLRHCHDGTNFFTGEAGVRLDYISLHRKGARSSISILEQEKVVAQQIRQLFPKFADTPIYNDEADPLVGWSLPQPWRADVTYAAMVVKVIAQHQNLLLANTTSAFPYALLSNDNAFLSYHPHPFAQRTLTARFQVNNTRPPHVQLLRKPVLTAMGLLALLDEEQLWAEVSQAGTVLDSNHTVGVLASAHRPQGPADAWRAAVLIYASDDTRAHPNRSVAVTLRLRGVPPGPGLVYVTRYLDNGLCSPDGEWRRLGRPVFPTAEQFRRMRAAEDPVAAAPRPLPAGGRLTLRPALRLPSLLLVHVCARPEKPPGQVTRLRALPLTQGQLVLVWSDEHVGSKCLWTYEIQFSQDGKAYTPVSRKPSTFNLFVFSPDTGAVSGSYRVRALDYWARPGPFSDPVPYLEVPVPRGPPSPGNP
Type: binding
Experimental: The capacity of Compounds of the Disclosure to stabilize α-L-iduronidase was assessed by differential scanning fluorimetry technique. The thermal denaturation of purified human native enzyme was monitored in the presence of the extrinsic fluorescent probe SYPRO Orange (Sigma-Aldrich, St. Louis, MO). The tested compounds were dissolved in 100% DMSO and diluted into the protein buffer to achieve final concentrations of 1% DMSO.
Recombinant human α-L-iduronidase protein (purchased from R&D) 12.5 µL of 1.5 µM in 100 mM Hepes 20 mM MgCl2 pH 7 (protein final concentration 0.75 µM) with Sypro Orange 10X and 12.5 µl of the different compound solutions were dispensed into 96-well PCR-plates. The intensity of SYPRO Orange fluorescence after a systematic increase of temperature was monitored in the Roche LightCycler® 480 II device (Roche Diagnostics).
The capacity to stabilize α-L-iduronidase is denoted as follows: • ΔTm GALC > 1 is shown as A; • ΔTm GALC between 0.5 and 1 is shown as B; • ΔTm GALC between 0.1 and 0.5 is shown as C; and • ΔTm GALC less than 0.1 is shown as D.
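Also: Classes count stabilization of α-L-iduronidase despite the GALC label.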

Row | Compound | DSF Activity range
1 | CCN(CC(=O)NC(C)(C)C)Cc1nc2ccsc2c(=O)[nH]1 [Example 13, N-(tert-butyl)-2-(ethyl((4-oxo-3,4-dihydrothieno[3,2-d]pyrimidin-2-yl)methyl)amino)acetamide] | D (ΔTm GALC less than 0.1 is shown as D)
2 | Cc1csc(NC(=O)CN(C)Cc2nc3ccsc3c(=O)[nH]2)n1 [Example 14, 2-(methyl((4-oxo-3,4-dihydrothieno[3,2-d]pyrimidin-2-yl)methyl)amino)-N-(4-methylthiazol-2-yl)acetamide] | A (ΔTm GALC > 1 is shown as A)
3 | CCN(CC(=O)Nc1cccc(OC)c1)Cc1nc2ccsc2c(=O)[nH]1 [Example 10, 2-(ethyl((4-oxo-3,4-dihydrothieno[3,2-d]pyrimidin-2-yl)methyl)amino)-N-(3-methoxyphenyl)acetamide] | C (ΔTm GALC between 0.1 and 0.5 is shown as C)
4 | CCCN(CC(=O)Nc1ccc(F)cc1F)Cc1nc2ccsc2c(=O)[nH]1 [Example 11, N-(2,4-difluorophenyl)-2-(((4-oxo-3,4-dihydrothieno[3,2-d]pyrimidin-2-yl)methyl)(propyl)amino)acetamide] | B (ΔTm GALC between 0.5 and 1 is shown as B)
5 | CN(CC(=O)N(C)c1ccccc1)Cc1nc2ccccc2c(=O)[nH]1 [Example 27, N-methyl-2-(methyl((4-oxo-3,4-dihydroquinazolin-2-yl)methyl)amino)-N-phenylacetamide] | B (ΔTm GALC between 0.5 and 1 is shown as B)
6 | CCN(CC(=O)Nc1ccccc1Cl)Cc1nc2ccccc2c(=O)[nH]1 [Example 22, N-(2-chlorophenyl)-2-(ethyl((4-oxo-3,4-dihydroquinazolin-2-yl)methyl)amino)acetamide] | C (ΔTm GALC between 0.1 and 0.5 is shown as C)
7 | CN(CC(=O)Nc1ccc(Cl)c(Cl)c1)Cc1nc2c(cnn2C)c(=O)[nH]1 [Example 30, N-(3,4-dichlorophenyl)-2-(methyl((1-methyl-4-oxo-4,5-dihydro-1H-pyrazolo[3,4-d]pyrimidin-6-yl)methyl)amino)acetamide] | B (ΔTm GALC between 0.5 and 1 is shown as B)
8 | CN(CC(=O)Nc1ccccc1Cl)Cc1nc2ccsc2c(=O)[nH]1 [Example 12, N-(2-chlorophenyl)-2-(methyl((4-oxo-3,4-dihydrothieno[3,2-d]pyrimidin-2-yl)methyl)amino)acetamide] | B (ΔTm GALC between 0.5 and 1 is shown as B)
9 | CN(CC(=O)Nc1cccc2ccccc12)Cc1nc2ccccc2c(=O)[nH]1 [Example 18, 2-(methyl((4-oxo-3,4-dihydroquinazolin-2-yl)methyl)amino)-N-(naphthalen-1-yl)acetamide] | A (ΔTm GALC > 1 is shown as A)

Same assay, conditions: synthetized Examples 1-7; ΔTm class

Row | Compound | DSF Activity range
10 | Cc1cccc(-n2ncc3c(O)nc(CN(C)CC(=O)N(C)c4ccccc4Cl)nc32)c1 [Example 3, N-(2-chlorophenyl)-2-(((4-hydroxy-1-m-tolyl-1H-pyrazolo[3,4-d]pyrimidin-6-yl)methyl)(methyl)amino)-N-methylacetamide] | C (ΔTm GALC between 0.1 and 0.5 is shown as C)
11 | COc1ccc(-n2ncc3c(O)nc(CN(C)CC(=O)N(C)c4ccccc4Cl)nc32)cc1 [Example 7, N-(2-chlorophenyl)-2-(((4-hydroxy-1-(4-methoxyphenyl)-1H-pyrazolo[3,4-d]pyrimidin-6-yl)methyl)(methyl)amino)-N-methylacetamide] | C (ΔTm GALC between 0.1 and 0.5 is shown as C)
12 | Cc1ccc(-n2ncc3c(O)nc(CN(C)CC(=O)N(C)c4ccccc4Cl)nc32)cc1 [Example 4, N-(2-chlorophenyl)-2-(((4-hydroxy-1-p-tolyl-1H-pyrazolo[3,4-d]pyrimidin-6-yl)methyl)(methyl)amino)-N-methylacetamide] | B (ΔTm GALC between 0.5 and 1 is shown as B)
13 | COc1ccccc1-n1ncc2c(O)nc(CN(C)CC(=O)N(C)c3ccccc3Cl)nc21 [Example 5, N-(2-chlorophenyl)-2-(((4-hydroxy-1-(2-methoxyphenyl)-1H-pyrazolo[3,4-d]pyrimidin-6-yl)methyl)(methyl)amino)-N-methylacetamide] | D (ΔTm GALC less than 0.1 is shown as D)

Same assay, conditions: synthetized Examples 38-94; ΔTm class

Row | Compound | DSF Activity range
14 | CCN(CC(=O)N(C)c1c(Cl)cccc1Cl)Cc1nc2c(cnn2C)c(=O)[nH]1 [Example 93, 2-(N-ethyl-N-((4,5-dihydro-l-methyl-4-oxo-1H-pyrazolo[3,4-d]pylimidin-6-yl)methyl)amino)-N-(2,6-dichlorophenyl)-N-methylacetamide] | C (ΔTm GALC between 0.1 and 0.5 is shown as C)
15 | CCN(CC(=O)N(C)c1c(Cl)cccc1Cl)Cc1nc2c(C)csc2c(=O)[nH]1 [Example 49, N-(2,6-dichlorophenyl)-2-(ethyl((7-methyl-4-oxo-3,4-dihydrothieno[3,2-d]pyrimidin-2-yl)methyl)amino)-N-methylacetamide] | C (ΔTm GALC between 0.1 and 0.5 is shown as C)
16 | Cc1csc(N(C)C(=O)CN(C)Cc2nc3cc(F)ccc3c(=O)[nH]2)n1 [Example 68] | C (ΔTm GALC between 0.1 and 0.5 is shown as C)
17 | CN(CC(=O)N(C)c1ccc(Cl)c(Cl)c1)Cc1nc2cc(F)ccc2c(=O)[nH]1 [Example 75] | B (ΔTm GALC between 0.5 and 1 is shown as B)
18 | Cc1csc2c(=O)[nH]c(CN(C)CC(=O)N3Cc4ccccc4C3)nc12 [Example 38] | B (ΔTm GALC between 0.5 and 1 is shown as B)
19 | CCCN(CC(=O)N(C)c1ccccc1Cl)Cc1nc2cc(C)ccc2c(=O)[nH]1 [Example 85] | B (ΔTm GALC between 0.5 and 1 is shown as B)
20 | CN(CC(=O)N1Cc2ccccc2C1)Cc1nc2ccc(F)cc2c(=O)[nH]1 [Example 56, 6-fluoro-2-(((2-(isoindolin-2-yl)-2-oxoethyl)(methyl)amino)methyl)quinazolin-4(3H)-one] | A (ΔTm GALC > 1 is shown as A)
21 | CN(CC(=O)N(C)c1ccccc1Cl)Cc1nc2cc(F)ccc2c(=O)[nH]1 [Example 63] | B (ΔTm GALC between 0.5 and 1 is shown as B)
22 | CCCN(CC(=O)N(C)c1ccccc1Cl)Cc1nc2cc(F)ccc2c(=O)[nH]1 [Example 76] | D (ΔTm GALC less than 0.1 is shown as D)
23 | CCN(CC(=O)N(C)c1c(Cl)cccc1Cl)Cc1nc2cc(F)ccc2c(=O)[nH]1 [Example 73, 2-(N-ethyl-N-((7-fluoro-3,4-dihydro-4-oxoquinazolin-2-yl)methyl)amino)-N-(2,6-dichlorophenyl)-N-methylacetamide] | C (ΔTm GALC between 0.1 and 0.5 is shown as C)
24 | CCN(CC(=O)N(C)c1ccccc1Cl)Cc1nc2ccc(C)cc2c(=O)[nH]1 [Example 79] | C (ΔTm GALC between 0.1 and 0.5 is shown as C)
25 | Cc1ccc2nc(CN(C)CC(=O)N3CCc4ccccc43)[nH]c(=O)c2c1 [Example 81] | C (ΔTm GALC between 0.1 and 0.5 is shown as C)
26 | CN(CC(=O)N1Cc2ccccc2C1)Cc1nc2cc(F)ccc2c(=O)[nH]1 [Example 71, 7-fluoro-2-(((2-(isoindolin-2-yl)-2-oxoethyl)(methyl)amino)methyl)quinazolin-4(3H)-one] | A (ΔTm GALC > 1 is shown as A)
27 | Cc1ccc2c(=O)[nH]c(CN(CC(=O)N(C)c3ccccc3Cl)C3CC3)nc2c1 [Example 83] | D (ΔTm GALC less than 0.1 is shown as D)
28 | Cc1ccc2nc(CN(C)CC(=O)N(C)c3ccccc3Cl)[nH]c(=O)c2c1 [Example 66] | B (ΔTm GALC between 0.5 and 1 is shown as B)
29 | CCN(CC(=O)N(C)c1ccccc1Cl)Cc1nc2cc(F)ccc2c(=O)[nH]1.Cl [Example 64] | B (ΔTm GALC between 0.5 and 1 is shown as B)
30 | CN(CC(=O)N1CCc2ccccc21)Cc1nc2ccc(F)cc2c(=O)[nH]1 [Example 57, 6-fluoro-2-(((2-(indolin-1-yl)-2-oxoethyl)(methyl)amino)methyl)quinazolin-4(3H)-one] | B (ΔTm GALC between 0.5 and 1 is shown as B)
31 | Cc1cc2nc(CN(C)CC(=O)N(C)c3ccccc3Cl)[nH]c(=O)c2s1 [Example 45] | B (ΔTm GALC between 0.5 and 1 is shown as B)
32 | Cc1cc2nc(CN(C)CC(=O)N3CCc4ccccc43)[nH]c(=O)c2s1 [Example 52] | B (ΔTm GALC between 0.5 and 1 is shown as B)
33 | CCN(CC(=O)N(C)c1ccccc1Cl)Cc1nc2c(C)csc2c(=O)[nH]1 [Example 42] | C (ΔTm GALC between 0.1 and 0.5 is shown as C)
